Assay results from patent publication US7531567B2, “Use of a medicament containing an effector of the glutathione metabolism together with α-lipoic acid in kidney replacement therapy” (Serumwerk Bernburg AG, priority 2001, dated 2009).
Where a name gives a salt, the structure may show the parent alone.

Key:
Format in all cases: cell-based, human
peripheral immune cells = test: membrane-bound thiol expression of peripheral immune cells (CMTMR flow cytofluorimetry); conditions: α-lipoic acid 50 μM, captopril 10 μM, combination at the same concentrations
Description: Peripheral immune cells of healthy donors (n=9) were isolated from the peripheral blood by means of density gradient centrifugation. Lymphocytes having a donor-dependent relative proportion of about 90% in this case normally represent the main fraction of the resulting total population of mononuclear cells. 10% of the mononuclear cells are represented by monocytes. The mononuclear cells obtained were taken up in special cell culture media and incubated in a gas incubator at 37° C., a relative humidity of 98% and 5% relative air-CO2 content. The metabolism of the primarily resting immune cells was activated by means of mitogenic stimulation (0.5 μg/ml of phytohemagglutinin). In order to test the influence of the combinations used according to the invention on the thiol status of thiol-deficient immune cells, these were artificially thiol-depleted. This was carried out by culturing in thiol-deficient media (RPMI 1603) according to tested procedures. Comparison cultures using whole media (RPMI 1640) served for the definition of the best possible normal value under culture conditions. The expression of membrane-bound thiol groups was likewise determined by flow cytofluorimetry. In this connection, chloromethyltetramethylrhodamine (CMTMR) was employed as a thiol conjugate under the conditions of a blocked membrane potential and of an inhibited diffusion capacity of the cells. The fluorescence intensity of the bound fluorochrome molecules on the cell membrane is in this case in turn proportional to the amount of the thiol groups on the cell surface.

peritoneal macrophages [1] = test: phagocytic ability of peritoneal macrophages (fluorochrome-labelled bacteria); conditions: treatment period of 6 days; for Phagocytosis rate: α-lipoic acid 50 μM, ambroxole 10 μM, enalapril 5 μM, captopril 10 μM
Description: Peritoneal macrophages were isolated analogously to the procedure described under example 3 and cultured ex vivo. The determination of the phagocytic power was carried out by means of a cytofluorometric test at the individual cell level. In this test, the macrophages were cocultured with opsonized and fluorochrome-labelled bacteria. The amount of bacteria taken up in a defined time period was recorded quantitatively by means of the fluorescence intensity in the macrophages and was regarded as a measure of their phagocytic capacity. The influence of the combinations used according to the invention on the phagocytic ability of the peritoneal macrophages after a treatment period of 6 days is presented in Table 3.

peritoneal macrophages [2] = test: degree of differentiation and activation of peritoneal macrophages (CD15, CD11c, CD69, CD71); conditions: incubation for 6 days, control = 1.0, α-lipoic acid 50 μM, ambroxole 10 μM, enalapril 5 μM, captopril 10 μM; for CD15/69: CD69 on CD15-positive cells; for CD11c/71: CD71 on CD11c-positive cells
Description: Peritoneal macrophages were isolated from patients under kidney replacement therapy according to the processes described under example 3 and cultured in the presence of the combinations of α-lipoic acid and effectors of the glutathione metabolism named according to the invention. After incubation for 6 days, the degree of differentiation of the peritoneal macrophages was determined cytofluorometrically by means of the expression of the cell surface antigens CD15 and CD11c, and the degree of cellular activation by means of the coexpression of the activation antigens CD69 on CD15-positive cells and CD71 on CD11c-positive cells.

peritoneal macrophages [3] = test: cytokine synthesis of peritoneal macrophages (enzyme immunoassay); conditions: treatment period of 6 days (n=10); α-lipoic acid 50 μM, ambroxole 10 μM, enalapril 5 μM, captopril 10 μM
Description: In parallel to this, in this experimental batch the cell culture supernatants were recovered and the cytokines interleukin-6 (IL-6) and interleukin-1 receptor antagonist (IL-1ra) contained therein, synthesized and secreted by the peritoneal macrophages, were determined.

[4] = tested on: lymphocytes (peripheral immune cells); test: intracellular thiol expression of peripheral immune cells (CMFDA flow cytofluorimetry); conditions: α-lipoic acid 50 μM, captopril 10 μM, combination at the same concentrations
Description: Peripheral immune cells of healthy donors (n=9) were isolated from the peripheral blood by means of density gradient centrifugation. Lymphocytes having a donor-dependent relative proportion of about 90% in this case normally represent the main fraction of the resulting total population of mononuclear cells. 10% of the mononuclear cells are represented by monocytes. The mononuclear cells obtained were taken up in special cell culture media and incubated in a gas incubator at 37° C., a relative humidity of 98% and 5% relative air-CO2 content. The metabolism of the primarily resting immune cells was activated by means of mitogenic stimulation (0.5 μg/ml of phytohemagglutinin). In order to test the influence of the combinations used according to the invention on the thiol status of thiol-deficient immune cells, these were artificially thiol-depleted. This was carried out by culturing in thiol-deficient media (RPMI 1603) according to tested procedures. Comparison cultures using whole media (RPMI 1640) served for the definition of the best possible normal value under culture conditions. […] Primarily nonfluorogenic CMFDA is in this case passively taken up by the cell. Binding to cytoplasmic thiol groups takes place via the chloromethyl radical. After removal of the acetate radicals by nonspecific cellular esterases, this, now cell membrane-impermeable complex becomes fluorogenic at an excitation wavelength λex=490 nm with an emission wavelength λem=520 nm. The mean fluorescence intensity of the sample (10,000 cells) is directly proportional to the concentration of the intracellular thiol groups. In FIG. 1, the action of the combination of α-lipoic acid and ambroxole (FIG. 1a) and α-lipoic acid and enalapril (FIG. 1b) on the intracellular thiol expression of lymphocytes is shown. […] The data are shown as the ratio of the cellular fluorescence intensity for calibration particles (beads) in each case analyzed in parallel. The active compound concentration of the respective combination is identical to the concentrations of the individual components.

peritoneal macrophages [5] = test: cellular thiol expression of peritoneal macrophages in kidney replacement therapy; conditions: time kinetics over 14 days (n=12); FIG. 4
Description: Peritoneal macrophages were isolated from the effluate of the peritoneal dialysis of high-grade renally insufficient patients, taken up in cell culture medium and incubated in a gas incubator at 37° C., a relative humidity of 98% and 7.5% relative air-CO2 content. In order to test the influence of the combinations used according to the invention on the thiol status of the peritoneal macrophages, in each case a fraction was treated with α-lipoic acid, the effector of the glutathione metabolism ambroxole or the ACE inhibitor enalapril or with the combination of α-lipoic acid/ambroxole or α-lipoic acid/enalapril, while in each case a further fraction was used as an untreated control. The determination of the cellular thiol status was carried out by means of the measuring method described under 1. The membrane expression of thiols was determined by means of the mean fluorescence intensity (mfi) of the sample (3000 cells/measurement) after coupling to a chloromethylfluorochrome derivative. In FIG. 4, the effect of the combination of α-lipoic acid and ambroxole (FIG. 4a), and α-lipoic acid and enalapril (FIG. 4b) in the time kinetics over 14 days is shown (n=12).

peritoneal macrophages [6] = test: stability of membrane-bound thiol restitution in peritoneal macrophages in the dialysis model; conditions: dialysis model over 14 days; FIG. 7
Description: The peritoneal macrophages described under example 3, which were thiol-restituted by means of the combinations used according to the invention, were removed from this test system after 6 days and cultured in a dialysis model over a period of 14 days. For this, the peritoneal macrophages were adapted to mobile collagen IV-coated matrices and brought into contact with conventional dialysis solution 3 times daily for 60 minutes each. This model served here for the induction of a combined […]/osmotic stress. In FIG. 6, the action of the combination of α-lipoic acid and ambroxole (FIG. 6a), and α-lipoic acid and enalapril (FIG. 6b) on the intracellular thiol expression of the peritoneal macrophages in the time kinetics is presented. The membrane expression of thiols was determined by means of the mean fluorescence intensity (mfi) of the sample (3000 cells/measurement) after coupling to a chloro-methylfluorochrome derivative.

T lymphocytes = test: activation markers CD69, CD25, CD71 of phytohemagglutinin-stimulated T lymphocytes; conditions: thiol-deficient cells, culture period of 72 hours, FIG. 3
Description: In the culture batch described under example 1, human T lymphocytes were stimulated with […] of phyto-hemagglutinin. […] The influence of the combinations used according to the invention on the activation markers CD69 (early activation antigen), CD25 (intermediate activation antigen) and CD71 (late activation antigen) of T lymphocytes was investigated. In FIG. 3, the action of the combination of α-lipoic acid and ambroxole (FIG. 3a), and α-lipoic acid and enalapril (FIG. 3b) on the activation index of T lymphocytes is shown. Compared with normal T lymphocytes (activation index=1.0), in thiol-deficient cells a clear lowering of the activatability, confirming the cellular functional disorder, is to be noted. […] It can thus be concluded that the normalization of the cellular thiol status mediated by the combined use of α-lipoic acid and the respective effectors of the glutathione metabolism is accompanied by a restitution of the cellular functionality.

SMILES	Phagocytosis rate (peritoneal macrophages [1])	CD15/69 (peritoneal macrophages [2])	CD11c/71 (peritoneal macrophages [2])	CD11c (peritoneal macrophages [2])	CD15 (peritoneal macrophages [2])	IL-1ra (peritoneal macrophages [3])	IL-6 (peritoneal macrophages [3])	increase in the phagocytosis rate in relation to the untreated control, factor (peritoneal macrophages [1])	membrane-bound thiol expression in the dialysis model (in words) (peritoneal macrophages [6])	effect on the activation index of T lymphocytes (in words) (T lymphocytes)	also measured
C[C@H](CS)C(=O)N1CCC[C@H]1C(=O)O [Captopril, 1-[(2S)-3-mercapto-2-methylpropionyl]-L-proline]	653 ± 43 mfi/10,000 cells	1.69 ± 0.21	1.52 ± 0.16	1.26 ± 0.24	1.19 ± 0.14	129.4 ± 25.1 ng/10^6 cells	42.9 ± 7.7 ng/10^6 cells	–	–	–	Membrane-bound thiol expression (peripheral immune cells; culture period 0 d): 2.37 ± 0.45 mfiBeads/Ratio; Membrane-bound thiol expression (peripheral immune cells; culture period 1 d): 2.63 ± 0.39 mfiBeads/Ratio; Membrane-bound thiol expression (peripheral immune cells; culture period 2 d): 2.54 ± 0.41 mfiBeads/Ratio; Membrane-bound thiol expression (peripheral immune cells; culture period 3 d): 2.52 ± 0.38 mfiBeads/Ratio; Membrane-bound thiol expression (peripheral immune cells; culture period 4 d): 2.50 ± 0.41 mfiBeads/Ratio; Membrane-bound thiol expression (peripheral immune cells; culture period 6 d): 2.46 ± 0.50 mfiBeads/Ratio; Membrane-bound thiol expression (peripheral immune cells; culture period 8 d): 2.01 ± 0.39 mfiBeads/Ratio; Membrane-bound thiol expression (peripheral immune cells; culture period 10 d): 1.68 ± 0.29 mfiBeads/Ratio; Membrane-bound thiol expression (peripheral immune cells; culture period 12 d): 1.02 ± 0.51 mfiBeads/Ratio; Membrane-bound thiol expression (peripheral immune cells; culture period 14 d): 0.99 ± 0.46 mfiBeads/Ratio; intracellular thiol expression ([4]; culture period 0 d): 2.88 ± 0.20 mfiBeads/Ratio; intracellular thiol expression ([4]; culture period 1 d): 2.80 ± 0.21 mfiBeads/Ratio; intracellular thiol expression ([4]; culture period 2 d): 2.76 ± 0.22 mfiBeads/Ratio; intracellular thiol expression ([4]; culture period 3 d): 2.49 ± 0.26 mfiBeads/Ratio; intracellular thiol expression ([4]; culture period 4 d): 2.21 ± 0.36 mfiBeads/Ratio; intracellular thiol expression ([4]; culture period 6 d): 1.83 ± 0.33 mfiBeads/Ratio; intracellular thiol expression ([4]; culture period 8 d): 1.02 ± 0.39 mfiBeads/Ratio; intracellular thiol expression ([4]; culture period 10 d): 0.91 ± 0.46 mfiBeads/Ratio; intracellular thiol expression ([4]; culture period 12 d): 0.76 ± 0.49 mfiBeads/Ratio; intracellular thiol expression ([4]; culture period 14 d): 0.75 ± 0.56 mfiBeads/Ratio
Nc1c(Br)cc(Br)cc1CNC1CCC(O)CC1 (stereo not drawn) [Ambroxole, hydrochloride]	501 ± 52 mfi/10,000 cells	0.98 ± 0.11	0.96 ± 0.1	1.01 ± 0.09	0.98 ± 0.13	118.6 ± 21.3 ng/10^6 cells	51.8 ± 8.1 ng/10^6 cells	1.35	marginal effects	no influence on one of the three activation markers	effect on the cellular thiol expression of peritoneal macrophages (in words) (peritoneal macrophages [5]): no effect
CCOC(=O)[C@H](CCc1ccccc1)NC(C)C(=O)N1CCCC1C(=O)O (stereo in doubt) [Enalapril, 1-{N—[(S)-1-ethoxycarbonyl-3-phenylpropyl]-L-alanyl}-L-proline]	567 ± 59 mfi/10,000 cells	1.19 ± 0.12	1.10 ± 0.14	1.23 ± 0.22	1.21 ± 0.22	121.1 ± 16.9 ng/10^6 cells	41.7 ± 7.3 ng/10^6 cells	1.53	marginal effects	only equivalent in the case of the effectuation of the CD25 antigen of the α-lipoic acid	–
